Converted amounts (≈) assume the structure as drawn. Where a name gives a salt, the structure may show the parent alone.
Key:
[1] = experimental water solubility when available in the scientific literature; cited from earlier work
[2] = Steroid solubility studies in dissolution media (PBS, pH 6.3), Example 10; format: physicochemical; settings: for solubility at 68 h: pH 6.3, aqueous buffer, thermodynamic from solid
Experimental: Solubility of the steroid candidates was assessed in dissolution media (PBS, pH 6.3) at ambient temperatures for 68 hours. UV detection of soluble steroid was determined relative to a standard curve.

[3] = statement in words; cited from earlier work
[4] = system: vitreous of a Male New Zealand white rabbit; assay: Intravitreal injection of micronized axitinib suspension, histology after 1 month; format: in vivo; settings: for Inflammation around the injected material / Inflammation within the vitreous Chamber: semi-quantitative scale 0-5
Experimental: (§1) 50 μL of the 2% axitinib suspension was then drawn into a 100 μL luer lock Hamilton syringe using a 21G 1.5″ needle. The needle was swapped for a fresh 27G ½″ TW needle (Nipro). The 50 μL suspension was then injected at the 6 o'clock position within the vitreous of a Male New Zealand white rabbit. After 1 month, eyes were explanted and prepared for histology.
(§2) Two eyes were fixed (Davidson's), blocked, sectioned, mounted and stained for microscopical examination by a board certified veterinary pathologist. Eyes were sectioned according to the following scheme: A suture had been placed at the 12 o'clock position for orientation at harvest. Typically eyes were trimmed in half in the plane from 12 o'clock to 6 o'clock through the lens and optic nerve along the midline. This captures as many optic structures in one plane as is possible. The trimmed eyes were examined grossly and abnormalities noted. Each half of the globe trimmed was embedded in its own cassette. Cassette A is always the nasal half of the eye, and cassette B is always the temporal half of the eye. For each block 6 hematoxylin and eosin (H&E)-stained slides were prepared that were separated by 1000 microns (1 mm). Each slide contained 2 serial sections of eye on it. All slides were evaluated by a board-certified veterinary pathologist at Charter Preclinical Services. Tissues were scored on a semi-quantitative scale from 0-5 for any abnormalities.
Eyes were scored in several categories for signs of inflammation or other adverse findings. Inflammation scores were as follows:
1—Rare foci of change; minimal
2—Mild diffuse change or more pronounced focal change
3—Moderate diffuse change
5 μL of the 4% Axitinib suspension was then drawn into a 100 μL luer lock Hamilton syringe using a 21G 1.5″ needle. The needle was swapped for a fresh 27G ½″ TW needle (Nipro). The 50 μL suspension was then injected at the 6 o'clock position within the vitreous of a Male New Zealand white rabbit. After 1 month, eyes were explanted and prepared for histology.
as §2, with “(Davidson's fixative solution),” for “(Davidson's),”
Eyes were scored in several categories for signs of inflammation or other adverse findings as described above.
as §1, with “the 8%” for “the 2%”, “TW Nipro needle.” for “TW needle (Nipro).”, “of both eyes in” for “of a”

Nc1c(CC(=O)O)cccc1C(=O)c1ccc(Br)cc1 [Bromfenac]
Experimental Solubility [1]: 53,000 μg/mL

COc1cc2c(Nc3ccc(Br)cc3F)ncnc2cc1OCC1CCN(C)CC1 [Vandetanib (ZD6474), Vandetanib]
Experimental Solubility [1]: 8 µg/mL

CO[C@H]1C[C@@H]2CC[C@@H](C)[C@@](O)(O2)C(=O)C(=O)N2CCCC[C@H]2C(=O)O[C@H]([C@H](C)C[C@@H]2CC[C@@H](OCCO)[C@H](OC)C2)CC(=O)[C@H](C)/C=C(\C)[C@@H](O)[C@@H](OC)C(=O)[C@H](C)C[C@H](C)/C=C/C=C/C=C/1C [Everolimus]
Experimental Solubility [1]: 10 µg/mL

CC[C@H]1OC(=O)[C@H](C)[C@@H](O[C@H]2C[C@@](C)(OC)[C@@H](O)[C@H](C)O2)[C@H](C)[C@@H](O[C@@H]2O[C@H](C)C[C@H](N(C)C)[C@H]2O)[C@](C)(O)C[C@@H](C)CN(C)[C@H](C)[C@@H](O)[C@]1(C)O [Azithromycin]
Experimental Solubility [1]: 69 µg/mL

CCC(=O)O[C@]1(C(=O)SCF)[C@H](C)C[C@H]2[C@@H]3C[C@H](F)C4=CC(=O)C=C[C@]4(C)[C@@]3(F)[C@@H](O)C[C@@]21C [Fluticasone Propionate]
Experimental Solubility [1]: 1 µg/mL

CC1(C)O[C@@H]2C[C@H]3[C@@H]4C[C@H](F)C5=CC(=O)C=C[C@]5(C)[C@H]4[C@@H](O)C[C@]3(C)[C@]2(C(=O)CO)O1 [Flunisolide, Anhydrous, USP, Flunisolide]
solubility at 68 h [2]: 90 µg/mL (≈ 207 µM)

CC(C)OC(=O)CCC/C=C\C[C@@H]1[C@@H](CC[C@@H](O)CCc2ccccc2)[C@H](O)C[C@@H]1O [Latanoprost]
solubility in aqueous solutions [3]: relatively low solubility

O=C(O)Cc1ccccc1Nc1c(Cl)cccc1Cl [Diclofenac]
Experimental Solubility [1]: 600 µg/mL

CCN(CC)CCNC(=O)c1c(C)[nH]c(/C=C2\C(=O)Nc3ccc(F)cc32)c1C [Sunitinib Malate]
Experimental Solubility [1]: 25,000 μg/mL

CC(C)OC(=O)CCC/C=C\C[C@@H]1[C@@H](/C=C/[C@@H](O)COc2cccc(C(F)(F)F)c2)[C@H](O)C[C@@H]1O [Travoprost]
Experimental Solubility [1]: 44 µg/mL

CCCC1O[C@@H]2C[C@H]3[C@@H]4CCC5=CC(=O)C=C[C@]5(C)[C@H]4[C@@H](O)C[C@]3(C)[C@]2(C(=O)CO)O1 (some centres unmarked) [Budesonide]
solubility at 68 h [2]: 30 µg/mL (≈ 69.7 µM)
Experimental Solubility [1]: 24 µg/mL

CC(C)(C)NC[C@H](O)COc1nsnc1N1CCOCC1 [Timolol Maleate]
Experimental Solubility [1]: 2,800 μg/mL

CO[C@H]1C[C@@H]2CC[C@@H](C)[C@@](O)(O2)C(=O)C(=O)N2CCCC[C@H]2C(=O)O[C@H]([C@H](C)C[C@@H]2CC[C@@H](O)[C@H](OC)C2)CC(=O)[C@H](C)/C=C(\C)[C@@H](O)[C@@H](OC)C(=O)[C@H](C)C[C@H](C)/C=C/C=C/C=C/1C [Sirolimus]
Experimental Solubility [1]: <100 µg/mL

CNC(=O)c1ccccc1Sc1ccc2c(/C=C/c3ccccn3)n[nH]c2c1 [Axitinib]
Other adverse findings (retina, sclera, lens, etc.) ([4]; 100 μg): none
Inflammation around the injected material ([4]; 100 μg): 0.04±0.29
Inflammation within the vitreous Chamber ([4]; 100 μg): 0.0±0.0
Other adverse findings (retina, sclera, lens, etc.) ([4]; 200 μg): none
Inflammation around the injected material ([4]; 200 μg): 0.08±0.37
Inflammation within the vitreous Chamber ([4]; 200 μg): 0.14±0.35
Other adverse findings (retina, sclera, lens, etc.) ([4]; 400 ug, both eyes): none
Inflammation around the injected material ([4]; 400 ug, both eyes): 0.14±0.35
Inflammation within the vitreous Chamber ([4]; 400 ug, both eyes): 0.14±0.35
Experimental Solubility [1]: 1 µg/mL

CC1(C)O[C@@H]2C[C@H]3[C@@H]4CCC5=CC(=O)C=C[C@]5(C)[C@@]4(F)[C@@H](O)C[C@]3(C)[C@]2(C(=O)CO)O1 [Triamcinolone Acetonide]
solubility at 68 h [2]: 20 µg/mL (≈ 46 µM)

CN1CCCC(n2nc(Cc3ccc(Cl)cc3)c3ccccc3c2=O)CC1 (centres unmarked) [Azelastine Base]
Experimental Solubility [1]: 50 µg/mL

CCOC(=O)O[C@]1(C(=O)OCCl)CC[C@H]2[C@@H]3CCC4=CC(=O)C=C[C@]4(C)[C@H]3[C@@H](O)C[C@@]21C [Loteprednol etabonate]
Experimental Solubility [1]: 5 µg/mL

O=c1[nH]c(=O)n([C@H]2C[C@H](O)[C@@H](CO)O2)cc1C(F)(F)F [Trifluridine]
Experimental Solubility [1]: 1,500 μg/mL

CN1CCCC(n2nc(Cc3ccc(Cl)cc3)c3ccccc3c2=O)CC1.O=C(O)c1cc2ccccc2c(Cc2c(O)c(C(=O)O)cc3ccccc23)c1O [Azelastine Embonate]
Experimental Solubility [1]: 15 µg/mL

C[C@@H]1C[C@H]2[C@@H]3CCC4=CC(=O)C=C[C@]4(C)[C@@]3(F)[C@@H](O)C[C@]2(C)[C@@]1(O)C(=O)CO [Dexamethasone alcohol]
Experimental Solubility [1]: 89 µg/mL

CN1CCC(=C2c3ccccc3CC(=O)c3sccc32)CC1 [Ketotifen fumarate]
Experimental Solubility [1]: 10,000 μg/mL

CC(C(=O)O)c1ccc(-c2ccccc2)c(F)c1 (centres unmarked) [Flurbiprofen Sodium]
Experimental Solubility [1]: 61 µg/mL

C=CC[C@@H]1/C=C(\C)C[C@H](C)C[C@H](OC)[C@H]2O[C@@](O)(C(=O)C(=O)N3CCCC[C@H]3C(=O)O[C@H](/C(C)=C/[C@@H]3CC[C@@H](O)[C@H](OC)C3)[C@H](C)[C@@H](O)CC1=O)[C@H](C)C[C@@H]2OC [Tacrolimus]
Experimental Solubility [1]: 8 µg/mL

C[C@@H]1C[C@H]2[C@@H]3CCC4=CC(=O)C=C[C@]4(C)[C@@]3(Cl)[C@@H](O)C[C@]2(C)[C@@]1(OC(=O)c1ccco1)C(=O)CCl [Mometasone furoate]
Experimental Solubility [1]: 20 µg/mL

CN1CCC(=C2c3ccccc3CC(=O)c3sccc32)CC1 [Ketotifen base]
Experimental Solubility [1]: 15 µg/mL

COc1c(N2CCNC(C)C2)c(F)cc2c(=O)c(C(=O)O)cn(C3CC3)c12 (centres unmarked) [Gatifloxacin]
Experimental Solubility [1]: 60,000 μg/mL

Aflibercept
Experimental Solubility [1]: >100,000 μg/mL

C[C@H]1C[C@H]2[C@@H]3CCC4=CC(=O)C=C[C@]4(C)[C@@]3(F)[C@@H](O)C[C@]2(C)[C@@]1(O)C(=O)COP(=O)([O-])[O-].[Na+].[Na+] [Betamethasone Sodium Phosphate]
Max Solubility in PBS, pH 6.3 ([2]; PBS pH 6.3, ambient temperatures, 68 hours, UV detection): > 100,000 μg/mL
Solubility in water, descriptive ([2]; printed beside the Example 10 value): freely soluble
Experimental Solubility [1]: 67 µg/mL

N[C@@H]1CCCCN(c2c(F)cc3c(=O)c(C(=O)O)cn(C4CC4)c3c2Cl)C1 [Besifloxacin Base]
Experimental Solubility [1]: 90 µg/mL
